Measurements as given in ChEMBL document CHEMBL5512633, “Hit-to-lead optimization of 2-aminoquinazolines as anti-microbial agents against Leishmania donovani” (Eur J Med Chem, 2024).
Active and inactive are the calls of the source. The rule behind the calls is not given here.

Experiments:
Leishmania donovani [1] = experiment: Antileishmanial activity against Leishmania donovani MHOM/IN/1983/AG83 axenic amastigotes assessed as inhibition of growth at 30 uM incubated for 48 hrs by flow cytometric analysis relative to control; type: functional
[2] = Cytotoxicity against human THP-1 cells incubated for 72 hrs by DAPI staining based analysis; type: toxicity, cell-based
Leishmania donovani [3] = experiment: Antileishmanial activity against Leishmania donovani MHOM/IN/1983/AG83 axenic amastigotes assessed as inhibition of growth incubated for 48 hrs by flow cytometric analysis; type: functional, organism-based; conditions: MHOM/IN/1983/AG83, 48 h
[4] = Lipophilicity, logD of compound in 1-octanol and phosphate buffer at pH 7.4 by HPLC-UV analysis; type: physicochemical; conditions: 1-octanol/phosphate buffer
Leishmania donovani [5] = experiment: Antileishmanial activity against Leishmania donovani; type: functional, organism-based
[6] = Metabolic stability in mouse liver microsomes assessed as half-life preincubated for 10 mins and measured after 60 mins by LC-MS/MS analysis; type: ADME, Microsome
[7] = Metabolic stability in mouse liver microsomes assessed as hepatic blood flow preincubated for 10 mins and measured after 60 mins by LC-MS/MS analysis; type: ADME, Microsome; conditions: read-out: QH
[8] = Metabolic stability in human liver microsomes assessed as hepatic blood flow preincubated for 10 mins and measured after 60 mins by LC-MS/MS analysis; type: ADME, Microsome; conditions: read-out: QH
[9] = Stability in mouse plasma assessed as compound remaining measured after 2 hrs by LC-MS/MS analysis; type: ADME, cell-free; conditions: read-out: Stability
[10] = Metabolic stability in human liver microsomes assessed as half-life preincubated for 10 mins and measured after 60 mins by LC-MS/MS analysis; type: ADME, Microsome
[11] = Stability in human plasma assessed as compound remaining measured after 2 hrs by LC-MS/MS analysis; type: ADME, cell-free; conditions: read-out: Stability
[12] = Cytotoxicity against human HepG2 cells incubated for 48 hrs by PI staining based flow cytometric analysis; type: toxicity, cell-based
[13] = Selectivity index, ratio of CC50 for cytotoxicity against human HepG2 cells to IC50 for antileishmanial activity against Leishmania donovani MHOM/IN/1983/AG83 axenic amastigotes; type: toxicity, cell-based; conditions: read-out: Ratio CC50/IC50

Row | SMILES | CC50 at 72 h [2] [µM] | IC50 (Leishmania donovani [3]) [µM] | logD [4] | remaining at 2 h [9] [%] | remaining at 2 h [11] [%] | other results
1 | COc1cc2c(N3CCCCC3)nc(Cl)nc2cc1OCc1ccccc1 | > 100 | – | – | – | – | inhibition (Leishmania donovani [1]): inactive
2 | COc1cc2c(N3CCCCC3)nc(NS(C)(=O)=O)nc2cc1O | > 100 | – | – | – | – | inhibition at 30 µM (Leishmania donovani [1]): ~3.25%
3 | COc1cc2c(N3CCCCC3)nc(N(C)Cc3ccc(Br)cc3)nc2cc1OC1CCCC1 | 34.4 | 54 | – | – | – | –
4 | COc1cc2c(N3CCCCC3)nc(N)nc2cc1OC1CCCC1 | > 100 | 19.4 | – | – | – | –
5 | O=c1c(O)c(-c2ccc(O)c(O)c2)oc2cc(O)cc(O)c12 [QUERCETIN] | – | – | 2.5 | – | – | –
6 | COc1ccc(-c2cnc(NC(=O)c3ccc(F)cc3)n2C)cc1 | > 50 | 15 | – | – | – | IC50 (Leishmania donovani [5]): 1.2 µM
7 | COc1cc2c(N3CCCCC3)nc(NCc3ccc(F)cc3)nc2cc1OC1CCNC1 (configuration not stated) | 6.3 | 4.66 | 2.37 | 99.1 | 99 | half-life [6]: 52.1 min; hepatic extraction ratio at 1 h [7]: 0.42; hepatic extraction ratio at 1 h [8]: 0.21; half-life [10]: > 120 min; CC50 at 48 h [12]: 10.1 µM; selectivity ratio [13]: 2.18
8 | COc1cc2c(N(C)C)nc(NCc3ccc(Br)cc3)nc2cc1O | – | 4.78 | – | – | – | –
9 | COc1cc2c(N3CCOCC3)nc(NCc3ccc(F)cc3)nc2cc1OC1CCCC1 | > 50 | 12 | 3.22 | 95.6 | 59.3 | half-life [6]: 6.9 min; hepatic extraction ratio at 1 h [7]: 0.732; hepatic extraction ratio at 1 h [8]: 0.843; half-life [10]: 6 min
10 | COc1cc2c(N3CCCCC3)nc(NC3CCCCC3)nc2cc1OC1CCCC1 | 10.2 | 3.28 | – | – | – | –
11 | COc1cc2c(N3CCCCC3)nc(NCc3ccc(F)cc3)nc2cc1OC1CCCC1 | 46.5 | 10.2 | 2.64 | 96.9 | 105 | half-life [6]: 13 min; hepatic extraction ratio at 1 h [7]: 0.592; hepatic extraction ratio at 1 h [8]: 0.722; half-life [10]: 12.4 min
12 | COc1cc2c(N(C)C)nc(NCc3ccc(Br)cc3)nc2cc1OC1CCNC1 (configuration not stated) | – | 3.26 | – | – | – | –
13 | COc1ccc(-c2cnc(NC(=O)c3cc(-c4ccccn4)n[nH]3)n2C)cc1 | – | – | – | – | – | IC50 (Leishmania donovani [5]): 1 µM
14 | CCCCCCCCCCCCCCCCOP(=O)([O-])OCC[N+](C)(C)C [MILTEFOSINE] | 25 | 5.37 | – | – | – | CC50 at 48 h [12]: 51.6 µM; selectivity ratio [13]: 9.38
15 | COc1cc2c(N3CCCCC3)nc(NC(=O)c3ccc(Cl)cc3)nc2cc1OC1CCCC1 | 7.58 | 16.6 | – | – | – | –
16 | COc1cc2c(N3CCCCC3)nc(NCc3ccc(Br)cc3)nc2cc1OC1CCCC1 | 15.2 | 2.57 | 2.6 | 92.6 | 96.2 | half-life [6]: 46.5 min; hepatic extraction ratio at 1 h [7]: 0.288; hepatic extraction ratio at 1 h [8]: 0.281; half-life [10]: 83.4 min; CC50 at 48 h [12]: 28.1 µM; selectivity ratio [13]: 10.9
17 | COc1cc2nc(NCc3ccc(F)cc3)nc(N3CCCCC3)c2cc1OC | 11.1 | 13.7 | – | – | – | –
18 | COc1cc2c(N3CCCCC3)nc(N(C)C)nc2cc1O | 73.4 | – | – | – | – | inhibition at 30 µM (Leishmania donovani [1]): ~18.8%
19 | COc1cc2c(N3CCCCC3)nc(NS(C)(=O)=O)nc2cc1OCc1ccccc1 | > 50 | – | – | – | – | inhibition at 30 µM (Leishmania donovani [1]): ~5.5%
20 | CNc1nc(NCc2ccc(F)cc2)nc2cc(OC3CCCC3)c(OC)cc12 | 2.29 | 1.55 | 2.22 | 88.9 | 73.2 | half-life [6]: 9.1 min; hepatic extraction ratio at 1 h [7]: 0.674; hepatic extraction ratio at 1 h [8]: 0.738; half-life [10]: 11.4 min
21 | COc1cc2c(N3CCCCC3)nc(NC(=O)c3ccc(C(F)(F)F)cc3)nc2cc1OC1CCCC1 | 79 | – | – | – | – | inhibition at 30 µM (Leishmania donovani [1]): ~34.5%
22 | O=C1CN(C(=O)c2cccc(Nc3ncc(-c4ccc5c(c4)OCO5)cn3)c2)CCN1 | – | – | – | – | – | IC50 (Leishmania donovani [5]): 5 µM
23 | COc1ccc(CNc2nc(N3CCCCC3)c3cc(OC)c(O)cc3n2)cc1 | > 50 | 12.3 | – | – | – | –
24 | COc1cc2c(N3CCCCC3)nc(NCc3ccc(C(C)(C)C)cc3)nc2cc1OC1CCCC1 | 2.63 | 4.93 | 3.66 | 44 | 63 | half-life [6]: 22.8 min; hepatic extraction ratio at 1 h [7]: 0.454; hepatic extraction ratio at 1 h [8]: 0.216; half-life [10]: 117 min

Row | SMILES | CC50 at 72 h [2] [µM] | IC50 (Leishmania donovani [3]) [µM] | logD [4] | remaining at 2 h [9] [%] | remaining at 2 h [11] [%] | other results
25 | CC(C)[N+](C)(CCOC(=O)C1c2ccccc2Oc2ccccc21)C(C)C [PROPANTHELINE] | – | – | – | 37.2 | 1.2 | –
26 | COc1cc2c(N3CCCCC3)nc(NCc3ccccc3)nc2cc1OC1CCCC1 | 4.13 | 7.49 | 2.59 | 88.7 | 93.7 | half-life [6]: 19.2 min; hepatic extraction ratio at 1 h [7]: 0.496; hepatic extraction ratio at 1 h [8]: 0.607; half-life [10]: 20.8 min
27 | COc1cc2c(N3CCCCC3)nc(NCc3ccc(F)cc3)nc2cc1OCc1ccccc1 | 26.9 | 10.5 | – | – | – | –
28 | COc1cc2c(N3CCCCC3)nc(NCc3ccc(C(F)(F)F)cc3)nc2cc1O | 27.1 | 8.91 | – | – | – | –
29 | COc1cc2c(N3CCCCC3)nc(NCc3ccc(C(F)(F)F)cc3)nc2cc1OC1CCCC1 | 28.1 | 17.9 | 2.94 | 88.1 | 97.5 | half-life [6]: 20.3 min; hepatic extraction ratio at 1 h [7]: 0.484; hepatic extraction ratio at 1 h [8]: 0.455; half-life [10]: 38.9 min
30 | COc1cc2c(N3CCCCC3)nc(Nc3ccc(Cl)cc3)nc2cc1OC1CCCC1 | 37.5 | 22.7 | – | – | – | –
31 | CCCCc1ccc(CNc2nc(N3CCCCC3)c3cc(OC)c(OC4CCCC4)cc3n2)cc1 | 5.69 | – | – | – | – | inhibition at 30 µM (Leishmania donovani [1]): ~17%
32 | COc1cc2c(N3CCCCC3)nc(NCc3ccc(C)cc3)nc2cc1OC1CCCC1 | 3.49 | 5.32 | – | – | – | –
33 | COc1cc2c(N3CCCCC3)nc(N(C)C)nc2cc1OC1CCCC1 | 74.3 | 6.85 | 2.74 | 80.1 | 83.8 | half-life [6]: 13.7 min; hepatic extraction ratio at 1 h [7]: 0.579; hepatic extraction ratio at 1 h [8]: 0.452; half-life [10]: 39 min; CC50 at 48 h [12]: 66.1 µM; selectivity ratio [13]: 9.65
34 | COc1cc2c(N(C)C)nc(NCc3ccc(F)cc3)nc2cc1OC1CCCC1 | 3.79 | 5.67 | 2.46 | 91.6 | 81.2 | half-life [6]: 6.9 min; hepatic extraction ratio at 1 h [7]: 0.733; hepatic extraction ratio at 1 h [8]: 0.799; half-life [10]: 8.1 min
35 | COc1cc2c(N3CCCCC3)nc(NS(C)(=O)=O)nc2cc1OC1CCCC1 | 57.9 | – | – | – | – | inhibition at 30 µM (Leishmania donovani [1]): ~5.1%
36 | COc1cc2c(N3CCCCC3)nc(N(C)Cc3ccc(Cl)cc3)nc2cc1OC1CCCC1 | > 50 | 10.2 | – | – | – | –
37 | COc1cc2c(N3CCCCC3)nc(NCc3ccccc3)nc2cc1OCc1ccccc1 | > 100 | 9.54 | – | – | – | –
38 | Cc1cc(N2CCc3ccccc3C2)nc(Nc2ccc(S(=O)(=O)N3CCOCC3)cc2)n1 | – | – | – | – | – | IC50 (Leishmania donovani [5]): 5 µM
39 | COc1cc2c(N3CCCCC3)nc(NCc3ccc(F)cc3)nc2cc1O | 28.2 | 12.2 | – | – | – | –
40 | COc1cc2c(N3CCCCC3)nc(N)nc2cc1OCc1ccccc1 | 15.4 | 12 | – | – | – | –
41 | COc1cc2c(N3CCCCC3)nc(NCC3CCCCC3)nc2cc1OC1CCCC1 | 6.97 | 4.36 | 3.34 | 99.3 | 46 | half-life [6]: 16.3 min; hepatic extraction ratio at 1 h [7]: 0.699; hepatic extraction ratio at 1 h [8]: 0.747; half-life [10]: 22.2 min
42 | COc1ccc(CNc2nc(N3CCCCC3)c3cc(OC)c(OCc4ccccc4)cc3n2)cc1 | 19.5 | 10.3 | 2.39 | 106 | 70.2 | half-life [6]: 15.5 min; hepatic extraction ratio at 1 h [7]: 0.548; hepatic extraction ratio at 1 h [8]: 0.499; half-life [10]: 32.2 min
43 | COc1cc2c(N3CCCCC3)nc(NCc3ccc([N+](=O)[O-])cc3)nc2cc1OC1CCCC1 | 5.68 | 9.63 | – | – | – | –
44 | COc1cc2c(N3CCCCC3)nc(NCc3ccc(Cl)cc3)nc2cc1OC1CCCC1 | 12.2 | 8.13 | 3.14 | 92.2 | 103 | half-life [6]: 17.5 min; hepatic extraction ratio at 1 h [7]: 0.519; hepatic extraction ratio at 1 h [8]: 0.627; half-life [10]: 19.1 min
45 | COc1cc2c(N3CCCCC3)nc(NCc3ccccc3)nc2cc1O | 30.2 | 11.3 | – | – | – | –
46 | Clc1ccc(CNc2nc(N3CCCCC3)c3cc4c(cc3n2)OCO4)cc1 | 13.8 | 13.5 | 2.42 | 97.4 | 77.5 | half-life [6]: 10.8 min; hepatic extraction ratio at 1 h [7]: 0.637; hepatic extraction ratio at 1 h [8]: 0.668; half-life [10]: 16 min
47 | COc1ccc(CNc2nc(N3CCCCC3)c3cc(OC)c(OC4CCCC4)cc3n2)cc1 | 4.56 | 16.6 | – | – | – | –
48 | COc1cc2c(N3CCCCC3)nc(N)nc2cc1O | 22.2 | – | – | – | – | inhibition at 30 µM (Leishmania donovani [1]): ~13.6%
